Laboratory results: ChEMBL document CHEMBL2413025, “Synthesis, biological activity and molecular modeling studies on 1H-benzimidazole derivatives as acetylcholinesterase inhibitors” (Bioorg Med Chem, 2013)

Legend:
[1] = Selectivity ratio of IC50 for horse serum BChE to IC50 for electric eel AChE
Acetylcholinesterase [2] = target: Acetylcholinesterase (Homo sapiens, UniProt P22303); assay: Inhibition of recombinant human AChE using acetylthiocholine iodide as substrate preincubated for 5 mins before substrate addition by Ellman's method
Cholinesterase = Cholinesterase (Equus caballus, UniProt P81908)
Description: Inhibition of horse serum BChE using acetylthiocholine iodide as substrate preincubated for 5 mins before substrate addition by Ellman's method

Acetylcholinesterase [3] = target: Acetylcholinesterase (Electrophorus electricus, UniProt O42275)
Sequence of Acetylcholinesterase (Electrophorus electricus, UniProt O42275) (O42275 whole entry): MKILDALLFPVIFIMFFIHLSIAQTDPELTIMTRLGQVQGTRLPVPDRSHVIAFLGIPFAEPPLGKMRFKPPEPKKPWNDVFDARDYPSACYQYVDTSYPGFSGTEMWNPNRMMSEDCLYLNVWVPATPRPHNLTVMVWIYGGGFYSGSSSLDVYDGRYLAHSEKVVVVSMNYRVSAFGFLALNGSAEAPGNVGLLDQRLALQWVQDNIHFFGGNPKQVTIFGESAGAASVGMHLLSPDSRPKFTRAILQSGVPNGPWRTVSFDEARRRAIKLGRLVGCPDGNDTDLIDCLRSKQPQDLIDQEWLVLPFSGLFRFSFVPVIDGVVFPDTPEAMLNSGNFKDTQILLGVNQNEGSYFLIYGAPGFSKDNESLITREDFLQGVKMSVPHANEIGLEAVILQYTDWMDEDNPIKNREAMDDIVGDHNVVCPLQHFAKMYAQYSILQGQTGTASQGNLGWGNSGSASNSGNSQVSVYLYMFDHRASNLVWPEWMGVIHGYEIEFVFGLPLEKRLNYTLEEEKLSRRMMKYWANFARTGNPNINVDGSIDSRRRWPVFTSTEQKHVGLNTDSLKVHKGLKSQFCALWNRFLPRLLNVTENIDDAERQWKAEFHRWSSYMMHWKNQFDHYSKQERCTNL
Description: Inhibition of electric eel AChE using acetylthiocholine iodide as substrate preincubated for 5 mins before substrate addition by Ellman's method

Sequence of Cholinesterase (P81908 whole entry): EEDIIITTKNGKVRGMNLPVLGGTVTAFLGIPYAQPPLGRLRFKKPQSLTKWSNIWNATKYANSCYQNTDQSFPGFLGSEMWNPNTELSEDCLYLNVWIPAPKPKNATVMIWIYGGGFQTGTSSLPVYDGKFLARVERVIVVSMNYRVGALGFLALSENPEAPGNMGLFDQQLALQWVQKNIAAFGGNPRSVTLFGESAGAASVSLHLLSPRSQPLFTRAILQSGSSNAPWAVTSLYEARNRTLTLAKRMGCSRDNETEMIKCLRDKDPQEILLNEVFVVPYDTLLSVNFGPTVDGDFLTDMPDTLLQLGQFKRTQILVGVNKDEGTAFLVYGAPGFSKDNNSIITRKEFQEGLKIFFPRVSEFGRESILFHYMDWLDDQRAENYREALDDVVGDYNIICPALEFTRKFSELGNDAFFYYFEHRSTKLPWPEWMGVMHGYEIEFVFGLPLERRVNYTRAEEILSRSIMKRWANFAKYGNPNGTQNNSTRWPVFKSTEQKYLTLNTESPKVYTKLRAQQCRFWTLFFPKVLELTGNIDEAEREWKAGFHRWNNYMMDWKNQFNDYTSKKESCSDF
Sequence of Acetylcholinesterase (Homo sapiens, UniProt P22303) (P22303 whole entry): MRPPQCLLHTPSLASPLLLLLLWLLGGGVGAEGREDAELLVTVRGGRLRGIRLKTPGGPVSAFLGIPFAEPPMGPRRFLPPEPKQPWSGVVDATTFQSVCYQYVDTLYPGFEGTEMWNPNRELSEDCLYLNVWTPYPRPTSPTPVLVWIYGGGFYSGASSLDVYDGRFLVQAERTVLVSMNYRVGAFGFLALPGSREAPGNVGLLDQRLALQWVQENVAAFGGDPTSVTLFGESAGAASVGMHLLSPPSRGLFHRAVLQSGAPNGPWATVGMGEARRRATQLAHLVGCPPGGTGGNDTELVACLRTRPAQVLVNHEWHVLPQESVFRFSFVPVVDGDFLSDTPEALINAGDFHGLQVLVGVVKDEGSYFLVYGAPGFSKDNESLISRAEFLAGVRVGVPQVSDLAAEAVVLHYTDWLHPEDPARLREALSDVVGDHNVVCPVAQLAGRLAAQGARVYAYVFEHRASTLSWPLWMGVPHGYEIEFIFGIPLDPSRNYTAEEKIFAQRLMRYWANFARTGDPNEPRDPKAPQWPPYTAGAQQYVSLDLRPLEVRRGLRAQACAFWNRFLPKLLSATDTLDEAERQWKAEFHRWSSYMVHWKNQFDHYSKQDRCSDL

Oc1ccc(-c2nc3cc(Cl)ccc3[nH]2)cc1
Ratio IC50 [1]: 0.6 | IC50 (Acetylcholinesterase [2]): > 100 µM | IC50 (Cholinesterase): 8.52 µM | IC50 (Acetylcholinesterase [3]): 14.6 µM

Cc1ccc2[nH]c(-c3ccc(OCCN4CCCCC4)cc3)nc2c1
Ratio IC50 [1]: 1.6 | IC50 (Acetylcholinesterase [2]): 0.39 µM | IC50 (Cholinesterase): 1.37 µM | IC50 (Acetylcholinesterase [3]): 0.84 µM

Cc1ccc2[nH]c(-c3ccc(OCCN4CCOCC4)cc3)nc2c1
IC50 (Acetylcholinesterase [2]): 12.9 µM | IC50 (Cholinesterase): > 100 µM | IC50 (Acetylcholinesterase [3]): > 100 µM

CCN(CC)CCOc1ccc(-c2nc3ccc(C)cc3[nH]2)cc1
IC50 (Acetylcholinesterase [2]): 51 µM | IC50 (Cholinesterase): 6.48 µM | IC50 (Acetylcholinesterase [3]): 2.34 µM

c1ccc2[nH]c(-c3ccc(OCCN4CCCC4)cc3)nc2c1
Ratio IC50 [1]: 7.6 | IC50 (Acetylcholinesterase [2]): 2.13 µM | IC50 (Cholinesterase): 23 µM | IC50 (Acetylcholinesterase [3]): 3.05 µM

CC(C)N(CCOc1ccc(-c2nc3ccc(Cl)cc3[nH]2)cc1)C(C)C
IC50 (Acetylcholinesterase [2]): 3.68 µM | IC50 (Cholinesterase): 7.44 µM | IC50 (Acetylcholinesterase [3]): 0.58 µM

Clc1ccc2[nH]c(-c3ccc(OCCN4CCCC4)cc3)nc2c1
Ratio IC50 [1]: 1.1 | IC50 (Acetylcholinesterase [2]): 1.4 µM | IC50 (Cholinesterase): 3.42 µM | IC50 (Acetylcholinesterase [3]): 3.24 µM

c1ccc2[nH]c(-c3ccc(OCCN4CCCCC4)cc3)nc2c1
Ratio IC50 [1]: 2.3 | IC50 (Acetylcholinesterase [2]): 1.03 µM | IC50 (Cholinesterase): 2.45 µM | IC50 (Acetylcholinesterase [3]): 1.08 µM

CN(C)CCOc1ccc(-c2nc3ccccc3[nH]2)cc1
Ratio IC50 [1]: 0.4 | IC50 (Acetylcholinesterase [2]): 10.7 µM | IC50 (Cholinesterase): 5.87 µM | IC50 (Acetylcholinesterase [3]): 13.1 µM

Cc1ccc2[nH]c(-c3ccc(OCCN(C)C)cc3)nc2c1
IC50 (Acetylcholinesterase [2]): 12.3 µM | IC50 (Cholinesterase): > 100 µM | IC50 (Acetylcholinesterase [3]): 5.06 µM

Cc1ccc2[nH]c(-c3ccc(OCCN4CCCC4)cc3)nc2c1
Ratio IC50 [1]: 2.4 | IC50 (Acetylcholinesterase [2]): 0.4 µM | IC50 (Cholinesterase): 3.24 µM | IC50 (Acetylcholinesterase [3]): 1.34 µM

CCN(CC)CCOc1ccc(-c2nc3cc(C)ccc3[nH]2)cc1
Ratio IC50 [1]: 2.8

CCN(CC)CCOc1ccc(-c2nc3cc(Cl)ccc3[nH]2)cc1
IC50 (Acetylcholinesterase [2]): 8.75 µM | IC50 (Cholinesterase): > 100 µM | IC50 (Acetylcholinesterase [3]): 3.5 µM

Clc1ccc2[nH]c(-c3ccc(OCCN4CCOCC4)cc3)nc2c1
IC50 (Acetylcholinesterase [2]): 9.73 µM | IC50 (Cholinesterase): > 100 µM | IC50 (Acetylcholinesterase [3]): 11.1 µM

CCN(CC)CCOc1ccc(-c2nc3ccccc3[nH]2)cc1
Ratio IC50 [1]: 0.3 | IC50 (Acetylcholinesterase [2]): > 100 µM | IC50 (Cholinesterase): 5.06 µM | IC50 (Acetylcholinesterase [3]): 15.6 µM

Clc1ccc2nc(-c3ccc(OCCN4CCCCC4)cc3)[nH]c2c1
IC50 (Acetylcholinesterase [2]): 0.13 µM | IC50 (Cholinesterase): > 100 µM | IC50 (Acetylcholinesterase [3]): 0.61 µM

CC(C)N(CCOc1ccc(-c2nc3ccccc3[nH]2)cc1)C(C)C
Ratio IC50 [1]: 3.5 | IC50 (Acetylcholinesterase [2]): 23.4 µM | IC50 (Cholinesterase): 4.11 µM | IC50 (Acetylcholinesterase [3]): 1.19 µM

CC(C)N(CCOc1ccc(-c2nc3cc(Cl)ccc3[nH]2)cc1)C(C)C
Ratio IC50 [1]: 12.8

CN(C)CCOc1ccc(-c2nc3ccc(Cl)cc3[nH]2)cc1
IC50 (Acetylcholinesterase [2]): 8.02 µM | IC50 (Cholinesterase): > 100 µM | IC50 (Acetylcholinesterase [3]): 2.68 µM

Cc1ccc2[nH]c(-c3ccc(O)cc3)nc2c1
Ratio IC50 [1]: 0.3 | IC50 (Acetylcholinesterase [2]): > 100 µM | IC50 (Cholinesterase): 4.67 µM | IC50 (Acetylcholinesterase [3]): 15.9 µM

c1ccc2[nH]c(-c3ccc(OCCN4CCOCC4)cc3)nc2c1
IC50 (Acetylcholinesterase [2]): > 100 µM | IC50 (Cholinesterase): > 100 µM | IC50 (Acetylcholinesterase [3]): 18.8 µM

Oc1ccc(-c2nc3ccccc3[nH]2)cc1
Ratio IC50 [1]: 0.3 | IC50 (Acetylcholinesterase [2]): > 100 µM | IC50 (Cholinesterase): 4.59 µM | IC50 (Acetylcholinesterase [3]): 17.3 µM
